We go through two molecules from patent US8163287B2, “Combination therapy of her expressing tumors” (Genentech, Inc., priority 2005, dated 2012).

Data set [1] concerns human lung, breast and ovarian cancer xenograft models. In words: Antitumor activity in human cancer xenograft models (26 tumor xenografts). Format: in vivo, NMRI nu/nu nude mice. The settings on record: for tumors responsive to both erlotinib and pertuzumab: of 26 tumors (12%); for tumors that did not respond to treatment with either pertuzumab or erlotinib: of the 26 tumors tested (42%), pertuzumab i.p. 100 mg/kg, erlotinib orally 25 mg/kg. The text has this:
(§1) The tumor models were established by implanting tumor tissues obtained from human patients into randomized NMRI nu/nu nude mice (Oncotest GmbH, Freiburg, Germany) and tumors were propagated until stable tumor growth behavior was observed. After removal of the tumor from the donor mice, the tumor was cut into fragments (2 mm diameter) and placed in RPMI 1640 culture medium until subcutaneous implantation in the mice. The tumor fragments (two per mouse) were transplanted by tweezers. The mice were monitored daily.
(§2) The substance was diluted with a buffer containing 10 mM L-histidine, 240 mM sucrose, 0.02% polysorbate 20 pH 6 (HCl). The solutions were prepared fresh daily. Erlotinib was delivered as a ready-to-use formulation dissolved in 6% captisol.
Erlotinib was administered orally (25 mg/kg). The control mice received the vehicle by the same procedure and on the same schedule as the test compound.
(§3) The antitumor effect was evaluated following maximum tumor inhibition versus the control group.
Tumor volumes were determined by two-dimensional measurement with a caliper at the day of randomization (day 0) and then 2-3 times weekly. The tumor volume was calculated using the following formula: Tumor Volume=(a×b^2)×0.5,
where a and b represent two perpendicular tumor diameters, a=length (longer diameter), b=width (shorter diameter). All mice of a treatment group were sacrificed when the tumors reached mean diameters of approximately 16 mm.
Relative tumor volumes (RTV) were calculated for each individual tumor, by dividing the tumor volume on day X (Vx) by the tumor volume on day 0 (V0) multiplied by 100%. The tumor volume of a treatment group was expressed as the median RTV of all mice of the group. Median RTV volumes were used for drawing growth curves and treatment evaluation.
Optimal tumor growth inhibition at a particular day within the experimental period was calculated from the median RTV values of the test versus control groups multiplied by 100% (T/C 100%).
Relative tumor volume (Tx/T0) was defined as the median relative tumor volume of the test group on day X divided by the medium relative tumor volume of the test group on day 0, multiplied by 100.
T/C % and Tx/T0 were used for activity rating of the levels of efficacy, which were defined as follows: […]
Background: In xenograft studies the graft and the host belong to different species.

For data set [2], the system named is lung adenocarcinoma designated LXFA 629. In words: Antitumor activity in the LXFA 629 xenograft. It is filed as in vivo, NMRI nu/nu nude mice. The settings on record: each agent alone; pertuzumab i.p. 100 mg/kg, erlotinib orally 25 mg/kg.
Excerpt: as §1, §2
Erlotinib was administered orally (25 mg/kg). […]
as §3
Tumor volumes were determined by two-dimensional measurement with a caliper at the day of randomization (day 0) and then 2-3 times weekly. The tumor volume was calculated using the following formula: Tumor Volume=(a×b^2)×0.5, […]
Relative tumor volumes (RTV) were calculated for each individual tumor, by dividing the tumor volume on day X (Vx) by the tumor volume on day 0 (V0) multiplied by 100%. The tumor volume of a treatment group was expressed as the median RTV of all mice of the group. […]

Data set [3] deals with incurable, locally advanced, recurrent or metastatic solid tumors. The settings on record: cited from earlier work.
The conditions of data set [4]: cited from earlier work.

On to `C#Cc1cccc(Nc2ncnc3cc(OCCOC)c(OCCOC)cc23)c1` [erlotinib, N-(3-ethynylphenyl)-6,7-bis(2-methoxyethoxy)-4-quinazolinamine], for which the “NSCLC tumors that responded to erlotinib but not to pertuzumab” value in data set [1] (NSCLC only, of 21 (23%)) worked out at 5 tumors. In data set [1] (NSCLC only, out of the 21 tumors tested (43%)), the “NSCLC tumors with no response to pertuzumab or erlotinib monotherapy” value is 9 tumors. In data set [1] (monotherapy), the “tumors responsive to both erlotinib and pertuzumab” value is given as 3 tumors; the “tumors that did not respond to treatment with either pertuzumab or erlotinib” value stood at 11 tumors. For the same molecule, in data set [1] (monotherapy, of 26 tumors (27%)), the “tumors moderately responsive to erlotinib, but not pertuzumab” value came out at 7 tumors. In addition, the “activity rating (response to monotherapy)” value in data set [2] is given as “moderate response”.

As to “pertuzumab: antibody comprising the light and heavy chain amino acid sequences of SEQ ID NOS. 11 and 12; HER dimerization inhibitor”, in data set [1] (NSCLC only, of 21 (14%)), the “NSCLC tumors that responded to pertuzumab but not erlotinib” value is on record as 3 tumors. In data set [1] (monotherapy), the “tumors responsive to both erlotinib and pertuzumab” value came to 3 tumors; the “tumors that did not respond to treatment with either pertuzumab or erlotinib” value worked out at 11 tumors. Further, the confirmed partial responses entry in data set [3] (Phase I, single agent) is “Two”. In addition, the tumor regression achieved in data set [3] (of 20 patients evaluable for response) is given as 3 patients. The tolerability entry in data set [3] (patients, intravenously every 3 weeks) was “generally well tolerated”. Moreover, in data set [4] (doses of 2.0-15 mg/kg), the “pharmacokinetics (dose linearity)” value is listed as “linear”. Also, in data set [4] (patients), the antibodies to pertuzumab entry is recorded as “not detected”.
